From ChEMBL document CHEMBL1128849, “Synthesis and antibacterial activity of men 10700, a new penem antibiotic” (1995)
≈ marks a conversion by molar mass, not a printed value.

Assays:
Enterococcus faecalis [1] = test: In vitro antibacterial activity against Enterococcus faecalis ATCC 29212; assay type: functional
Pseudomonas aeruginosa [2] = test: In vitro antibacterial activity against Pseudomonas aeruginosa VR5; assay type: functional
Escherichia coli [3] = test: In vitro antibacterial activity against Escherichia. coli L; assay type: functional
Escherichia coli [4] = test: In vitro antibacterial activity against Escherichia. coli TEM2; assay type: functional
Escherichia coli [5] = test: In vitro antibacterial activity against Escherichia. coli ATCC 25922; assay type: functional
Staphylococcus aureus [6] = test: In vitro antibacterial activity against Staphylococcus aureus ATCC 25923; assay type: functional
Escherichia coli [7] = test: In vitro antibacterial activity against Escherichia. coli SHV; assay type: functional
Staphylococcus aureus [8] = test: In vitro antibacterial activity against Staphylococcus aureus MR13; assay type: functional
Pseudomonas aeruginosa [9] = test: In vitro antibacterial activity against Pseudomonas aeruginosa ATCC 27853; assay type: functional
Escherichia coli [10] = test: In vitro antibacterial activity against Escherichia. coli TEM1; assay type: functional
Escherichia coli [11] = test: In vitro antibacterial activity against Escherichia. coli DC2; assay type: functional
Staphylococcus aureus [12] = test: In vitro antibacterial activity against Staphylococcus aureus ATCC 29213; assay type: functional
Staphylococcus aureus [13] = test: In vitro antibacterial activity against Staphylococcus aureus MR09; assay type: functional
Pseudomonas aeruginosa [14] = test: In vitro antibacterial activity against Pseudomonas aeruginosa G242; assay type: functional
Yersinia sp. = test: In vitro antibacterial activity against Yersinia species; assay type: functional, yersinia spp; conditions: Yersinia sp. (in: enterobacteria)
Streptococcus pneumoniae = test: In vitro antibacterial activity against Streptococcus pneumoniae; assay type: functional
[15] = test system: Stenotrophomonas maltophilia; test: In vitro antibacterial activity against Xanthomonas maltophilia; assay type: functional
Morganella morganii = test: In vitro antibacterial activity against Morganella morganii; assay type: functional
Bacteroides fragilis = test: In vitro antibacterial activity against Bacteroides fragilis; assay type: functional
Proteus mirabilis = test: In vitro antibacterial activity against Proteus mirabilis; assay type: functional
Klebsiella pneumoniae = test: In vitro antibacterial activity against Klebsiella pneumoniae; assay type: functional
Staphylococcus aureus [16] = test: In vitro antibacterial activity against Staphylococcus aureus MR; assay type: functional
Haemophilus influenzae = test: In vitro antibacterial activity against Haemophilus influenzae; assay type: functional
[17] = test system: Staphylococcus epidermidis; test: In vitro antibacterial activity against Staphylococcus epidermidis; assay type: functional
Escherichia coli [18] = test: In vitro antibacterial activity against Escherichia coli; assay type: functional
Clostridium perfringens = test: In vitro antibacterial activity against Clostridium perfringens; assay type: functional
[19] = test system: Acinetobacter calcoaceticus subsp. anitratus; test: In vitro antibacterial activity against Acinetobacter anitratus; assay type: functional
Providencia rettgeri = test: In vitro antibacterial activity against Providencia rettgerii; assay type: functional
Streptococcus agalactiae = test: In vitro antibacterial activity against Streptococcus agalactiae B; assay type: functional
Aeromonas sp. = test: In vitro antibacterial activity against Aeromonas species.; assay type: functional
Listeria monocytogenes = test: In vitro antibacterial activity against Listeria monocytogenes; assay type: functional
Proteus vulgaris = test: In vitro antibacterial activity against Proteus vulgaris; assay type: functional
Providencia stuartii = test: In vitro antibacterial activity against Providencia stuartii; assay type: functional
Moraxella catarrhalis = test: In vitro antibacterial activity against Branhamella catarrhalis; assay type: functional
Staphylococcus aureus [20] = test: In vitro antibacterial activity against Staphylococcus aureus MS; assay type: functional
Citrobacter freundii = test: In vitro antibacterial activity against Citrobacter freundii; assay type: functional
Pseudomonas aeruginosa [21] = test: In vitro antibacterial activity against Pseudomonas aeruginosa; assay type: functional
Klebsiella aerogenes = test: In vitro antibacterial activity against Enterobacter aerogenes; assay type: functional
Enterococcus faecalis [22] = test: In vitro antibacterial activity against Enterococcus faecalis; assay type: functional
Enterococcus faecium = test: In vitro antibacterial activity against Enterococcus faecium; assay type: functional
Streptococcus pyogenes = test: In vitro antibacterial activity against Streptococcus pyogenes A; assay type: functional

For `C[C@@H](O)[C@H]1C(=O)N2C(C(=O)O)=C(CSC(=S)N(C)CC(N)=O)SC12` (stereo not given in full), the MIC (Enterococcus faecalis [1]) was 8 µg/mL (≈ 20.4 µM), the MIC (Pseudomonas aeruginosa [2]) was 4 µg/mL (≈ 10.2 µM) and the MIC (Escherichia coli [3]) was 16 µg/mL (≈ 40.9 µM). The MIC (Escherichia coli [4]) was 8 µg/mL (≈ 20.4 µM), the MIC (Escherichia coli [5]) was 8 µg/mL (≈ 20.4 µM) and the MIC (Staphylococcus aureus [6]) was 0.12 µg/mL (≈ 0.307 µM). The MIC (Escherichia coli [7]) was 16 µg/mL (≈ 40.9 µM), the MIC (Staphylococcus aureus [8]) was 0.03 µg/mL (≈ 0.0766 µM) and the MIC (Pseudomonas aeruginosa [9]) was > 32 µg/mL. The MIC (Escherichia coli [10]) was 8 µg/mL (≈ 20.4 µM), the MIC (Escherichia coli [11]) was 0.5 µg/mL (≈ 1.28 µM) and the MIC (Staphylococcus aureus [12]) was 0.12 µg/mL (≈ 0.307 µM). The MIC (Staphylococcus aureus [13]) was 2 µg/mL (≈ 5.11 µM) and the MIC (Pseudomonas aeruginosa [14]) was 8 µg/mL (≈ 20.4 µM).
`C[C@@H](O)[C@H]1C(=O)N2C(C(=O)O)=C(CN(C)CC(N)=O)SC12` (stereo not given in full) showed an MIC90 (Yersinia sp.) of 0.5 µg/mL (≈ 1.59 µM), an MIC (Enterococcus faecalis [1]) of 4 µg/mL (≈ 12.7 µM) and an MIC (Pseudomonas aeruginosa [2]) of 0.5 µg/mL (≈ 1.59 µM). The MIC90 (Streptococcus pneumoniae) was 0.06 µg/mL (≈ 0.19 µM), the MIC (Escherichia coli [3]) was 0.25 µg/mL (≈ 0.793 µM) and the MIC90 [15] was > 64 µg/mL. It also gave an MIC (Escherichia coli [4]) of 0.5 µg/mL (≈ 1.59 µM), an MIC90 (Morganella morganii) of 2 µg/mL (≈ 6.34 µM) and an MIC90 (Bacteroides fragilis) of 2 µg/mL (≈ 6.34 µM). For the same compound, the MIC (Escherichia coli [5]) was 0.25 µg/mL (≈ 0.793 µM), the MIC (Staphylococcus aureus [6]) was < 0.03 µg/mL and the MIC90 (Proteus mirabilis) was 1 µg/mL (≈ 3.17 µM). The MIC90 (Klebsiella pneumoniae) was 0.5 µg/mL (≈ 1.59 µM), the MIC (Escherichia coli [7]) was 0.5 µg/mL (≈ 1.59 µM) and the MIC90 (Staphylococcus aureus [16]) was 4 µg/mL (≈ 12.7 µM). For the same compound, the MIC90 (Haemophilus influenzae) was 2 µg/mL (≈ 6.34 µM), the MIC (Staphylococcus aureus [8]) was 0.06 µg/mL (≈ 0.19 µM) and the MIC90 [17] was 0.015 µg/mL (≈ 0.0476 µM). The MIC90 (Escherichia coli [18]) was 0.25 µg/mL (≈ 0.793 µM), the MIC90 (Clostridium perfringens) was 0.5 µg/mL (≈ 1.59 µM) and the MIC90 [19] was 16 µg/mL (≈ 50.7 µM). The MIC (Pseudomonas aeruginosa [9]) was > 32 µg/mL, the MIC (Escherichia coli [10]) was 0.25 µg/mL (≈ 0.793 µM) and the MIC90 (Providencia rettgeri) was 2 µg/mL (≈ 6.34 µM). It also gave an MIC90 (Streptococcus agalactiae) of 0.06 µg/mL (≈ 0.19 µM), an MIC (Escherichia coli [11]) of 0.25 µg/mL (≈ 0.793 µM) and an MIC (Staphylococcus aureus [12]) of 0.06 µg/mL (≈ 0.19 µM). For the same compound, the MIC90 (Aeromonas sp.) was 1 µg/mL (≈ 3.17 µM), the MIC90 (Listeria monocytogenes) was 0.5 µg/mL (≈ 1.59 µM) and the MIC90 (Proteus vulgaris) was 2 µg/mL (≈ 6.34 µM). For the same compound, the MIC90 (Providencia stuartii) was 2 µg/mL (≈ 6.34 µM), the MIC90 (Moraxella catarrhalis) was 0.25 µg/mL (≈ 0.793 µM) and the MIC90 (Staphylococcus aureus [20]) was 0.0075 µg/mL (≈ 0.0238 µM). For the same compound, the MIC90 (Citrobacter freundii) was 1 µg/mL (≈ 3.17 µM), the MIC (Staphylococcus aureus [13]) was 1 µg/mL (≈ 3.17 µM) and the MIC90 (Pseudomonas aeruginosa [21]) was > 64 µg/mL. It also gave an MIC90 (Klebsiella aerogenes) of 2 µg/mL (≈ 6.34 µM), an MIC (Pseudomonas aeruginosa [14]) of 4 µg/mL (≈ 12.7 µM) and an MIC90 (Enterococcus faecalis [22]) of 8 µg/mL (≈ 25.4 µM). The MIC90 (Enterococcus faecium) was > 64 µg/mL and the MIC90 (Streptococcus pyogenes) was 0.06 µg/mL (≈ 0.19 µM).
For `CCCCOC(=O)CN(C)CC1=C(C(=O)O)N2C(=O)[C@H]([C@@H](C)O)C2S1` (stereo not given in full), the MIC (Enterococcus faecalis [1]) was 8 µg/mL (≈ 21.5 µM), the MIC (Pseudomonas aeruginosa [2]) was > 32 µg/mL and the MIC (Escherichia coli [3]) was > 32 µg/mL. The MIC (Escherichia coli [4]) was > 32 µg/mL, the MIC (Escherichia coli [5]) was 32 µg/mL (≈ 85.9 µM) and the MIC (Staphylococcus aureus [6]) was 0.25 µg/mL (≈ 0.671 µM). For the same compound, the MIC (Escherichia coli [7]) was > 32 µg/mL, the MIC (Staphylococcus aureus [8]) was 0.5 µg/mL (≈ 1.34 µM) and the MIC (Pseudomonas aeruginosa [9]) was > 32 µg/mL. The MIC (Escherichia coli [10]) was > 32 µg/mL, the MIC (Escherichia coli [11]) was 1 µg/mL (≈ 2.68 µM) and the MIC (Staphylococcus aureus [12]) was 0.5 µg/mL (≈ 1.34 µM). The MIC (Staphylococcus aureus [13]) was 16 µg/mL (≈ 43 µM) and the MIC (Pseudomonas aeruginosa [14]) was > 32 µg/mL.
For `CC1(C)S[C@@H]2[C@H](NC(=O)[C@H](N)c3ccc(O)cc3)C(=O)N2[C@H]1C(=O)O` [AMOXICILLIN], the MIC90 (Yersinia sp.) was > 64 µg/mL, the MIC90 (Streptococcus pneumoniae) was 0.015 µg/mL (≈ 0.041 µM) and the MIC90 (Bacteroides fragilis) was 32 µg/mL (≈ 87.6 µM). The MIC90 (Klebsiella pneumoniae) was > 64 µg/mL, the MIC90 (Staphylococcus aureus [16]) was > 32 µg/mL and the MIC90 (Haemophilus influenzae) was 1 µg/mL (≈ 2.74 µM). It also gave an MIC90 [17] of 4 µg/mL (≈ 10.9 µM), an MIC90 (Clostridium perfringens) of 0.06 µg/mL (≈ 0.164 µM) and an MIC90 (Streptococcus agalactiae) of 0.06 µg/mL (≈ 0.164 µM). For the same compound, the MIC90 (Aeromonas sp.) was > 32 µg/mL, the MIC90 (Listeria monocytogenes) was 0.5 µg/mL (≈ 1.37 µM) and the MIC90 (Moraxella catarrhalis) was 2 µg/mL (≈ 5.47 µM). For the same compound, the MIC90 (Staphylococcus aureus [20]) was 1 µg/mL (≈ 2.74 µM), the MIC90 (Enterococcus faecalis [22]) was 0.5 µg/mL (≈ 1.37 µM) and the MIC90 (Enterococcus faecium) was 32 µg/mL (≈ 87.6 µM). The MIC90 (Streptococcus pyogenes) was 0.015 µg/mL (≈ 0.041 µM).
